According to patent US10364240B2, “Aryl sulfonamides” (ChemoCentryx, Inc., priority 2002, dated 2019):
pIC50: −log10 of the molar value.

target: T1, CCR9 (Homo sapiens, UniProt P51686); test: chemotaxis (conventional migration) assay and/or calcium mobilization (calcium flux) assay; type: cell-based; conditions: either or both of the chemotaxis assay and calcium mobilization assays; MOLT-4 cells, TECK
T1 construct: CCR9-expressing cells (such as a T cell line MOLT-4 cells)
T1 sequence (P51686 1-369): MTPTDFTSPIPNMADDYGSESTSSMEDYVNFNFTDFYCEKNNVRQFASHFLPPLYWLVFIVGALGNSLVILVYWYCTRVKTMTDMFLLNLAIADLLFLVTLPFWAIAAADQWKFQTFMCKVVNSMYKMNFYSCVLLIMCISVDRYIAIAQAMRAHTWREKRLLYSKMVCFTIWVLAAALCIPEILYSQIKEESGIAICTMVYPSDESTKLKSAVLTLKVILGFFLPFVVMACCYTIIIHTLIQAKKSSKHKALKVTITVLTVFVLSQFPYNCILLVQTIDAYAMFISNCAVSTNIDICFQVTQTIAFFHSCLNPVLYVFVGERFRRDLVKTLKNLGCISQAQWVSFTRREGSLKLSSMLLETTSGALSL
Description: MOLT-4 cells were obtained from the American Type Culture Collection (Manassas, Va.) and cultured in RPMI tissue culture medium supplemented with 10% fetal calf serum (FCS) in a humidified 5% CO2 incubator at 37° C. Recombinant human chemokine protein TECK was obtained from R&D Systems (Minneapolis, Minn.). ChemoTX® chemotaxis microchambers were purchased from Neuro Probe (Gaithersburg, Md.). CyQUANT® cell proliferation kits were purchased from Molecular Probes (Eugene, Oreg.). Calcium indicator dye Fluo-4 AM was purchased from Molecular Devices (Mountain View, Calif.).
Conventional migration assay was used to determine the efficacy of potential receptor antagonists in blocking migration mediated through CCR9. This assay was routinely performed using the ChemoTX® microchamber system with a 5-μm pore-sized polycarbonate membrane. To begin such an assay, MOLT-4 cells were harvested by centrifugation of cell suspension at 1000 PRM on a GS-6R Beckman centrifuge. The cell pellet was resuspended in chemotaxis buffer (HBSS with 0.1% BSA) at 5×10^6 cells/mL. Test compounds at desired concentrations were prepared from 10 mM stock solutions by serial dilutions in chemotaxis buffer. An equal volume of cells and compounds were mixed and incubated at room temperature for 15 minutes. Afterwards, 20 μL of the mixture was transferred onto the porus membrane of a migration microchamber, with 29 μL of 50 nM chemokine TECK protein placed at the lower chamber. Following a 150-minute incubation at 37° C., during which cells migrated against the chemokine gradient, the assay was terminated by removing the cell drops from atop the filter. To quantify cells migrated across the membrane, 5 μL of 7× CyQUANT® solution was added to each well in the lower chamber, and the fluorescence signal measured on a Spectrafluor Plus fluorescence plate reader (TECAN, Durham, N.C.). The degree of inhibition was determined by comparing migration signals betweeen compound-treated and untreated cells. IC50 calculation was further performed by non-linear squares regression analysis using Graphpad Prism (Graphpad Software, San Diego, Calif.).
Calcium flux assay measures an increase in intracellular calcium following ligand-induced receptor activation. In the screen of CCR9 antagonists, it was used as a secondary assay carried out on a FLIPR® machine (Molecular Devices, Mountain View, Calif.). To begin an assay, MOLT-4 cells were harvested by centrifugation of cell suspension, and resuspended to 1.5×10^6 cells/mL in HBSS (with 1% fetal calf serum). Cells were then labeled with a calcium indicator dye Fluo-4 AM for 45 minutes at 37° C. with gentle shaking. Following incubation, cells were pelletted, washed once with HBSS and resuspended in the same buffer at a density of 1.6×10^6 cells/mL. One hundred microliters of labeled cells were mixed with 10 μL of test compound at the appropriate concentrations on an assay plate. […] The degree of inhibition was determined by comparing calcium signals between compound-treated and untreated cells. IC50 calculations were further performed by non-linear squares regression analysis using Graphpad Prism (Graphpad Software, San Diego, Calif.).

SMILES	pIC50
Cc1ccc(C(=O)c2cc(Cl)ccc2NS(=O)(=O)c2ccc(OC(F)(F)F)cc2)c[n+]1[O-]	> 6.00
O=C(c1ncccn1)c1cc(Cl)ccc1NS(=O)(=O)c1ccc(-c2cnco2)cc1	> 6.00
CC(C)(c1ccc(S(=O)(=O)Nc2cc(F)c(F)cc2C(=O)c2cccnc2)cc1)c1ncco1	> 6.00
COC(=O)CCc1ccc(S(=O)(=O)Nc2ccc(Cl)cc2C(=O)c2ccnc(C)c2)cc1	< 6.00
C[C@@H]1CC(c2ccc(S(=O)(=O)Nc3ccc(Cl)cc3C(=O)c3cccnc3)cc2)C[C@H](C)O1 (stereo partly drawn)	> 6.00
CC(C)(C)c1ccc(S(=O)(=O)Nc2c(Cl)cccc2C(=O)c2ccncc2)cc1	> 6.00
CSc1cc(C(=O)c2cc(Cl)ccc2NS(=O)(=O)c2ccc(C(C)(C)C)cc2)ccn1	> 6.00
Cc1ccc(C(=O)c2cc(Cl)ccc2NS(=O)(=O)c2ccc(OC(C)C)cc2)c[n+]1[O-]	> 6.00
COC(=O)CCc1ccc(S(=O)(=O)Nc2ccc(Cl)cc2C(=O)c2cccnc2C)cc1	> 6.00
COc1c(Cl)ccc(NS(=O)(=O)c2ccc(C(C)(C)C)cc2)c1C(=O)c1ccncc1 [drawing 520]	< 6.00
Cc1c(C(=O)c2cc(Cl)ccc2NS(=O)(=O)c2ccc(OC(F)(F)F)cc2)ccc[n+]1[O-]	> 6.00
CC(C)(c1ccc(S(=O)(=O)Nc2ccc(Cl)cc2C(=O)c2ccccn2)cc1)c1ncco1	> 6.00
CC1(c2ccc(S(=O)(=O)Nc3ccc(Cl)cc3C(=O)c3cc[nH]n3)cc2)CCOCC1	> 6.00
COc1cc(C(=O)c2cc(Cl)ccc2NS(=O)(=O)c2ccc(C(C)(C)C)cc2)ccn1	> 6.00
CC(C)(C)c1ccc(S(=O)(=O)Nc2ccc(Cl)cc2C(=O)c2ncccn2)cc1	> 6.00
Cc1c(C(=O)c2cc(Cl)ccc2NS(=O)(=O)c2ccc(OC(C)C)cc2)ccc[n+]1[O-]	> 6.00
O=C(c1cccnc1)c1cc(Cl)ccc1NS(=O)(=O)c1ccc(-c2cnco2)cc1	> 6.00
C[C@H]1OC(C)(c2ccc(S(=O)(=O)Nc3ccc(Cl)cc3C(=O)c3ccncc3)cc2)O[C@@H]1C	< 6.00
CS(=O)(=O)c1ccc(S(=O)(=O)Nc2ccc(Cl)cc2C(=O)c2cccnc2)cc1	< 6.00
CC(C)(C)c1ccc(S(=O)(=O)Nc2ccc(Cl)cc2C(=O)c2ccc(S(C)(=O)=O)nc2)cc1	> 6.00
Cc1cc(C(=O)c2cc(Cl)ccc2NS(=O)(=O)c2ccc(-c3ncco3)cc2)ccn1	> 6.00
O=C(c1ccncc1)c1cc(Br)ccc1NS(=O)(=O)c1ccc(OC(F)(F)F)cc1	> 6.00

SMILES	pIC50
O=C(c1cc[n+]([O-])cc1)c1cc(Cl)ccc1NS(=O)(=O)c1ccc(-c2cnco2)cc1	> 6.00
Cc1ccc(S(=O)(=O)Nc2ccc(Cl)cc2C(=O)c2ccncc2)cc1	> 6.00
CC(C)(CO)c1ccc(S(=O)(=O)Nc2ccc(Cl)cc2C(=O)c2cc[n+]([O-])cc2)cc1	> 6.00
COc1c(Cl)ccc(NS(=O)(=O)c2ccc(C(C)(C)C)cc2)c1C(=O)c1ccncc1 [drawing 475]	> 6.00
CCc1ccc(S(=O)(=O)Nc2ccc(Br)cc2C(=O)c2ccncc2)cc1	> 6.00
CC(=O)OCC(C)(C)c1ccc(S(=O)(=O)Nc2ccc(Cl)cc2C(=O)c2ccncc2)cc1	> 6.00
O=C(c1ccncc1)c1cc(Cl)ccc1NS(=O)(=O)c1ccc(Br)cc1	> 6.00
C[C@@H]1CN(c2ccc(S(=O)(=O)Nc3ccc(Cl)cc3C(=O)c3cccnc3)cc2F)C[C@H](C)O1	> 6.00
O=C(c1ccncc1)c1cc(Cl)ccc1NS(=O)(=O)c1ccc2c(c1)CNCC2	> 6.00
CS(=O)(=O)c1ccc(S(=O)(=O)Nc2ccc(Br)cc2C(=O)c2ccncc2)cc1	> 6.00
O=C(c1cccnc1)c1cc(Cl)ccc1NS(=O)(=O)c1ccc(-c2nccs2)cc1	< 6.00
COC(=O)CCc1ccc(S(=O)(=O)Nc2ccc(Cl)cc2C(=O)c2ccc(C)nc2)cc1	> 6.00
Cc1ccc(C(=O)c2cc(Cl)ccc2NS(=O)(=O)c2ccc(S(C)(=O)=O)cc2)cn1	> 6.00
Cc1cc(C(=O)c2cc(Cl)ccc2NS(=O)(=O)c2ccc(S(C)(=O)=O)cc2)ccn1	< 6.00
CC(C)(C)c1ccc(S(=O)(=O)Nc2ccc(Cl)cc2C(=O)c2cnccn2)cc1	> 6.00
CC(C)(C)c1ccc(S(=O)(=O)Nc2ccc(Cl)cc2C(=O)c2cccc[n+]2[O-])cc1	> 6.00
Cc1nc(C)c(-c2ccc(S(=O)(=O)Nc3ccc(Cl)cc3C(=O)c3ccncc3)cc2)o1	> 6.00
COc1ccc(S(=O)(=O)Nc2ccc(Cl)cc2C(=O)c2ccccn2)cc1	< 6.00
Cc1ccc(C(=O)c2cc(Cl)ccc2NS(=O)(=O)c2ccc(C3C[C@@H](C)O[C@@H](C)C3)cc2)cn1 (stereo partly drawn)	> 6.00
CC1COC(C)(c2ccc(S(=O)(=O)Nc3ccc(Cl)cc3C(=O)c3ccncc3)cc2)O1 (stereo not drawn)	> 6.00
O=C(c1cccnc1)c1cc(Cl)ccc1NS(=O)(=O)c1ccc(-c2cocn2)cc1	> 6.00

tested on: MDR1a-knockout mice; test: MDR1a-knockout mice colitis model, prophylactic administration; type: in vivo; conditions: female mice, 50 mg/kg twice a day subcutaneous, 14 weeks from age 10 weeks
Description: The MDR1a-knockout mice, which lack the P-glycoprotein gene, spontaneously develop colitis under specific pathogen-free condition. The pathology in these animals has been characterized as Th1-type T cell-mediated inflammation similar to ulcerative colitis in humans. Disease normally begins to develop at around 8-10 weeks after birth. However the ages at which disease emerges and the ultimate penetrance level often vary considerably among different animal facilities.
[drawing 328] was evaluated by prophylactic administration for its ability to delay disease onset. Female mice (n=34) were dosed with 50 mg/kg twice a day by subcutaneous injections for 14 consecutive weeks starting at age 10 weeks. […] Moreover, the number of mice developing diarrhea was also lower among compound-treated mice (17%), compared to mice receiving vehicle alone (24%)(FIG. 1).

SMILES	IBD-associated growth retardation
CC(C)(C)c1ccc(S(=O)(=O)Nc2ccc(Cl)cc2C(=O)c2ccncc2)cc1	prevented IBD-associated growth retardation

same assay, conditions: female mice, 50 mg/kg twice a day subcutaneous, 14 weeks from age 10 weeks; vehicle 24%

SMILES	number of mice developing diarrhea [%]
CC(C)(C)c1ccc(S(=O)(=O)Nc2ccc(Cl)cc2C(=O)c2ccncc2)cc1	17
